Reference: patent US9492428B2, “Compounds, compositions, pharmaceutical compositions, and methods of use” (University of Louisville Research Foundation, Inc., priority 2011, dated 2016)

Key:
Type in all cases: cell-based, human
[1] = tested on: PC-3 cells; assay: Clonogenic assay in PC-3
Protocol: FIG. 7. Clonogenic assays in prostate cancer cells treated with compound I-1. Prostate cancer cells, DU145 (A) or PC3 (B), were plated at very low density in 6-well plates and incubated 18 h at 37° C. Cells were treated by addition of various concentrations of compound I-1 or with an equivalent volume of vehicle (DMSO), or were left untreated. After 10 days of treatment, cells were washed with cold PBS, fixed with paraformaldehyde, and stained with crystal violet solution.
Clonogenic Assay. Cells in fresh complete medium were plated at very low density (3×10^2 per well) into six-well plates for 18 h. After complete adhesion, cells were treated with compound I-1 by adding directly to the medium to give the concentration indicated in the figures. Cells were allowed to grow until visible colonies formed (10 days). Cell colonies were fixed with 4% paraformaldehyde in PBS (phosphate-buffered saline), stained with 0.25% crystal violet in 25% methanol, washed and air-dried.

[2] = tested on: PC3 cells; assay: Immunoblotting of apoptotic markers (cleaved caspase-3, PARP-1) in PC3; settings: 10 μM, FIG. 11B
Protocol: FIG. 11. Compound I-1 induces cell cycle arrest and apoptosis in PC3 cells. Prostate cancer cells were left untreated (−) or treated with compound I-1 (10 μM) or with vehicle (DMSO) for the time indicated in the figure. (A) For flow cytometric analysis of cell cycle parameters, cells were fixed, and stained with propidium iodide. Each histogram indicates the percent of cells in G1, S, and G2/M phases of the cell cycle. Data were gated to exclude apoptotic cells for these calculations. (B) After treatment, cells were lysed and total lysates were analyzed for cellular apoptotic markers by immunoblotting using anti-PARP-1 or anti-cleaved Caspase-3 antibodies. Anti-GAPDH-1 antibody was used as loading control. (C) Some 48 h-treated PC3 cells were harvest by trypsinization, washed with PBS, and total DNA was extracted then analyzed on a 1.8% agarose gel. M indicates DNA size marker (base pairs).
Cell Culture and Treatment. All cells were obtained from ATCC and were grown in a humidified incubator at 37° C. with 5% CO2. […] All protein concentrations were determined using the bicinchoninic acid (BCA) protein assay (Pierce, Rockford, Ill.).
Immunoblotting. […] Antibody-reactive proteins were detected using a chemiluminescence substrate (SuperSignal; Pierce, Rockford, Ill.) according to the manufacturer's instructions. […]

[3] = tested on: DU145 cells; assay: Immunofluorescence (confocal) microscopy, α-tubulin and DAPI; settings: 10 μM
Protocol: FIG. 14. Fluorescent microscopy of DU145 prostate cancer cells. DU145 cells were plated in culture dishes designed for confocal microscopy and allowed to adhere for 18 hours at 37° C. They were then for incubated for a further 24 and 48 h with 10 μM compound I-1 or 48 h with vehicle (DMSO). After that, cells were washed with cold PBS, fixed with 4% paraformaldehyde, and permeabilized with 0.1% Triton 100X. Cells were stained with 4′6-diamidino-2-phenylindole (DAPI), which binds to DNA, and with anti-α-tubulin antibody labeled with Alexa Fluor 488 to show the location of microtubules. Scale bars indicate a length of […], arrows indicate cells with evidence of aberrant mitosis, and asterisks indicate cells with apoptotic morphology.
Immunofluorescence microscopy. Cells (2.5×10^4) in fresh complete culture medium were plated on 18 mm diameter glass cover slips for 18 h. The medium was replaced with complete medium containing 10 μM compound I-1 or an equivalent volume of vehicle (DMSO) and incubated for 24 or 48 h. After incubation, cells were washed 3 times with ice-cold PBS, fixed in 4% paraformaldehyde in PBS for 30 min at room temperature, and washed three times with PBS. Cells were permeabilized for 1 min in PBS containing 0.1% Triton X-100, and washed three times with PBS. […]

With `C[C@@H]1CC[C@H]2C3C(O[C@]4([C@]5(O)CC6(C)C(=O)OC5C[C@@]6(C)O)CC[C@@]31O4)[C@H]1O[C@]13CC=CC(=O)[C@]23C` (stereo partly drawn) [I-1] the “effect on colony formation” value ([1]; 2.5 μM, 10 days) was “Inhibitory effects”, the “concentration that blocked the capacity of single cancer cells to generate colonies” value ([1]; 10 days of treatment) was at least 5 µM and the “activation of caspase-3” value [2] was “able to induce”. The “cleavage of PARP-1” value [2] was “able to induce”, the “cells with evidence of aberrant mitosis” value ([3]; 24 h) was “increased number” and the “cells with evidence of abnormal mitosis or apoptosis” value ([3]; 48 h) was “almost all of the cells”.
